We go through six substances from US5840835A, “Inhibitors of peptide binding to MHC class II proteins” (Merck & Co., Inc., priority 1996, dated 1998).

Where two headings read alike, the source gives them in different places.

For the test, the target named is T1, DR1Dw1 (Homo sapiens, UniProt P01903+P01911, A100R/D57E/F55L/F60I/F76Y/I96L/L162R/M171V/P40L/Q125E/R42F/V115G/Y59C).
T1 construct: these are Drosophila transmembrane DR; made in house
The test is described as follows: Inhibition of biotinylated RMBP 90-102 peptide binding to MHC class II DR1 (europium-streptavidin capture assay). On the procedure:
In studies optimizing the assay it was determined that only between 5 to 10% of the DR molecules are capable of binding added peptide. Therefore, the effective concentration of DR1Dw1 and DR4Dw4 was approximately 0.125 and 1.0 nM, respectively. […] The DR-peptide complexes (50 μL) are transferred to wells of a 96-well EIA plate precoated with LB3.1, the monoclonal antibody which recognizes the DR alleles of MHC Class II, and blocked with PBS with fetal calf serum (FCS). An additional 50 μL of 50 mM Tris, pH 7.0, containing 0.75% octyl glucoside is added to each well and the mixture incubated overnight at 4° C. Excess peptide is removed by washing with PBS containing 0.05% Tween 20 (Polyoxyethylene sorbitan monolaurate) and 0.01% NaN3. Europium-labeled streptavidin (Wallac Inc.) is added and incubated overnight. After washing, complexes are measured by the addition of Enhance™ buffer, the tradename for 0.1M acetate phthalate buffer, pH 3.2, containing 0.1% Triton X-100, tradename for polyoxyethylene ethers and other surface active compounds of Union Carbide Chemicals and Plastics Co., Inc. (particularly, a non-ionic surfactant for recovery of membrane components under non-denaturing conditions) 15 μM 2-naphthoyltrifluoroacetone, and 50 μM tri-N-octylphosphine oxide, which buffer releases the chelated europium from streptavidin and forms a highly fluorescent micellar solution. The resultant fluorescence is measured using a fluorescent plate reader (e.g., DELPHIA, Wallac, Inc.). The data are analyzed using a four-parameter logistical curve […] program (e.g., SigmaPlot) that calculates the concentration of biotinylated peptide giving a half-maximal signal (ED50).
The inhibition assay format is identical to the procedure described above with the exception that the unlabeled antagonist is serially diluted and incubated with constant concentrations of biotinylated RMBP 90-102 (0.3 nM for DR1Dw1 or 0.9 nM for DR4Dw4) and the MHC class II proteins. The concentration of unlabeled compound that prevents 50% of the labeled peptide from binding is the IC50 value. The concentration of the biotinylated RMBP 90-102 in each assay is experimentally determined to be […] one-sixth of its measured ED50 to assure the inhibition was primarily measuring the binding characteristics of the competitor.
In particular, a protocol for carrying out the inhibition assay is given below.
Preparation of antibody plate
Add 115 μL of 5 μg/mL LB3.1 in 50 mM Tris HCl pH 9.6/azide to each well of a Costar EIA plate. Incubate the plate overnight at 4° C.
Wash the plate 4 times with water/0.05% Tween-20/azide. Add 200 μL of PBS/5% FCS/azide for 1 hour at 4° C. to block the plate. The plate may be held at this point for later use or used immediately.
Flip out the block. It is not necessary to wash the plate. At 50 μL of load buffer (50 mM Tris HCl, pH 8.0 0.75% octylglucoside). Add to this volume 50 μL of the reaction mix from day 2, step 3 below.
Preparation of reaction mixture
(1) Add the following to a polypropylene round bottom 96-well plate such as a Costar #3794:
(A) Diluent (Ca Mg free PBS adjusted to pH 6.5 with 0.1M KH2 PO4 /0.75% octylglucoside/azide)0.81 μL
(B) Competitor at 16.6 times the final concentration in diluent or diluent alone 0.9 μL
(C) Biotinylated rat myelin basic protein (BRMBP) 90-102; 1.5 nM for DR1 or 4.5 nM for DR4 (These are 5×stocks of final concentrations of 0.3 nM/DR1 or 0.9 nM/DR4) 30 μL
(D) 6.25 nM DR1Dw1 or 50 nM DR4Dw4 (these are Drosophila transmembrane DR) (This is a 5×stock of the final concentration of 1.25 or 10 nM.) 30 μL Add the DR last and mix well at this time 150 μL
(2) Incubate at 37° C. for 20 min and 5 hours.
(3) Add 50 μL of this reaction mixture to one well of the blocked antibody plate from day 2 above.
(4) Incubate overnight at 4° C. to capture the DR-peptide complexes.
(5) Wash 4× with H2 O/0.05% Tween-20/azide […]

Setting [1] is: 20 min incubation at 37° C., 0.3 nM biotinylated RMBP 90-102, 1.25 nM DR1Dw1, pH 6.5, read-out: IC50 /nM @ 20 min.
[2] abbreviates: 5 hours incubation at 37° C., 0.3 nM biotinylated RMBP 90-102, 1.25 nM DR1Dw1, pH 6.5, read-out: IC50 /nM @ 5 Hrs.

Turning to “EtOCO-(L)Cha (L)Lys Nva.psi.[(E,CH=CH]Leu-NH2 TFA SALT [Example 5]”, the IC50 runs as follows: under setting [1], 21 nM; under setting [2], 142 nM. With “EtOCO-(L)Cha (L)Lys Nva.psi.[trans,cPr]Nle-NH2 TFA SALT [Example 6]”, under setting [1], the IC50 amounted to 616 nM. As to “EtOCO--(L)Cha(L)Lys Nva.psi.[E,CH=CH]Nle-NH2 TFA [Example 4]”, the IC50 is, setting by setting: under setting [1], 37 nM; under setting [2], 194 nM. For “N-(3-CYCLOHEXYLPROPYL)-(L)(ε-NICOTINOYL)Lys Nva.psi.[E,CH=CH]Nle-NH2 TFA SALT [Example 7]”, the IC50 reads like this: under setting [1], 409 nM; under setting [2], 2280 nM. The matching figures for “α-(3-CYCLOHEXYLPROPYL)-(L)(3-PYRIDYL)Ala Nva.psi.[(E)CH=CH]Leu-NH2 TFA SALT [Example 9]”: 2520 nM and 16600 nM. The matching figures for “α-(3-CYCLOHEXYLPROPYL)-(L)(ε-NICOTINOYL)Lys Nva.psi.[(E)CH=CH]Leu-NH2 TFA SALT [Example 8]”: 1050 nM and 5600 nM.
